Reference: patent US20170209444A1, “METHODS OF TREATING CANCER AND PREVENTING CANCER DRUG RESISTANCE” (Genentech, Inc., priority 2014, published 2017)
Entries after “also recorded” stand apart in the source; their conditions may differ.

Key:
SKBR3 DTPs = assay: SKBR3 DTP formation, Lapatinib; assay type: cell-based, human; conditions: DTPs upon treatment with Lapatinib; FIG. 9B
Protocol: (§1) 2×10^5 cells were plated in each well of a 6-well cluster dish. 24 hours after plating, media was removed and replaced with media containing drugs. Fresh media was replaced every 2 days until untreated cells reached confluence. Media was then removed, cells were washed with Phosphate Buffered Saline (PBS), and then fixed for 15 min with 4% formaldehyde in PBS. Cells were then washed with PBS and stained with the fluorescent nucleic acid stain, Syto60 ([…] in PBS; Molecular Probes) for 15 min. Dye was removed, cell monolayers were washed with PBS, and fluorescence quantitation was carried out at 700 nm with an Odyssey Infrared Imager (Li-Cor Biosciences). In some setting, RFP nuc red cells were used rather than Syto60.
(§2) Drug-sensitive cells were treated with relevant drug as described herein at concentrations exceeding 100 times the established IC50 values, for three rounds, with each treatment lasting 72 hours. […]
(§3) Specifically for Tarceva, GDC-0980, GDC-0973, AZ628, and Lapatinib DTPs, cells were plated and grown to 60-70% confluency then treated with Tarceva (0.1, 0.2, 0.5, and/or 1 uM), GDC-0980 (2 uM), GDC-0973 (1 uM), AZ628 (2 uM) and Lapatinib (1 uM). DTPs were collected and analyzed 1 week after the final dose of chemotherapy. […]

M14 DTPs = assay: M14 DTP formation, GDC0973; assay type: cell-based, human; conditions: DTPs upon treatment with GDC0973; FIG. 10B
Protocol: as §1, §2, §3

H3K9me2 levels = conditions: Vedadi et al. 2011; Sweis et al. 2014; cited from earlier work
parental PC9 cells = assay: Viability of parental PC9 cells; assay type: cell-based, human; conditions: shown concentrations; FIG. 6B
Protocol: as §1
(§4) Generally, for G9a inhibitor experiments cells were treated with active compound at 0.1, 0.2, 0.5 and/or 1 uM of the G9a inhibitor, UNC0638, for 3-5 days prior to chemotherapy treatment and were maintained on drug for the duration of the study.

H3K9 methylation [1] = assay: H3K9 methylation Western blot in PC9 cells (FIG. 6A); assay type: cell-based, human
Protocol: as §4
(§5) Cell lysates were prepared in Laemmli sample buffer and analyzed by immunoblotting as described previously. Cell lystates were analyzed using commercial antibodies against modifications on H3 (Abcam, Active Motif, and Cell Signaling Technologies).

SKBR3 parental cells = assay: Viability of SKBR3 parental cells; assay type: cell-based, human; conditions: shown concentrations; FIG. 9B
Protocol: as §1, §4

Colo205 parental cells = assay: Viability of Colo205 parental cells; assay type: cell-based, human; conditions: shown concentrations; FIG. 11B
Protocol: as §1, §4

EVSA-T DTPs = assay: EVSA-T DTP formation, GDC-0980; assay type: cell-based, human; conditions: DTPs upon treatment with GDC-0980; FIG. 8B
Protocol: as §1, §2, §3

H3K9 methylation [2] = assay: H3K9 methylation in EVSA-T cells (FIG. 8A); assay type: cell-based; conditions: human breast cancer cell line EVSA-T
Protocol: as §4, §5

G9aK185me3 = assay: G9a auto-methylation (FIG. 3B); assay type: cell-based
Protocol: Cell lysates were prepared in Laemmli sample buffer and analyzed by immunoblotting as described previously.

H3K9 methylation [3] = assay: H3K9 methylation in M14 cells (FIG. 10A); assay type: cell-based; conditions: human melanoma cell line M14
Protocol: as §4, §5

Colo205 DTPs = assay: Colo205 DTP formation, AZ628; assay type: cell-based, human; conditions: DTPs upon treatment with AZ628; FIG. 11B
Protocol: as §1, §2, §3

H3K9 methylation [4] = assay: H3K9 methylation in SKBR3 cells (FIG. 9A); assay type: cell-based; conditions: human breast adenocarcinoma cell line SKBR3
Protocol: as §4, §5

EVSA-T parental cells = assay: Viability of EVSA-T parental cells; assay type: cell-based, human; conditions: shown concentrations; FIG. 8B
Protocol: as §1, §4

methylation of H3K9 = assay: H3K9 methylation by Western blotting and mass spectrometry (FIG. 3A); assay type: cell-based
Protocol: as §4, §5
Samples with 10 million cells were lysed and histones were isolated from cell lysates using the Active Motif Histone Purification Kit (world wide web activemotif.com/catalog/171.html). Protein quantitation post-isolation was performed using the Qubit fluorescence platform (Invitrogen). The target yield was at least 20 μg or greater of purified histone per 5 million cells. The samples were then derivatized and binary comparisons using d0/d10 propionic anhydride and trypsin digestion was conducted. […]
Peptide digests were analyzed by nano LC/MS/MS in data-dependent mode on a LTQ Orbitrap Velos tandem mass spectrometer. […] Trypsin-digested propionylated samples were quantitated within each LC/MS run by comparing d0/d5 pairs (according to the work of Garcia et al., JPR, 8, 5367-5374 (2009)). Alternate enzyme samples were quantitated label-free between LC/MS runs.

H3K9 methylation [5] = assay: H3K9 methylation in Colo205 cells (FIG. 11A); assay type: cell-based; conditions: human colon cancer cell line Colo205
Protocol: as §4, §5

PC9 DTPs = assay: PC9 drug tolerant persister (DTP) formation/viability, Tarceva; assay type: cell-based, human
Protocol: as §1, §2, §3

M14 parental cells = assay: Viability of M14 parental cells; assay type: cell-based, human; conditions: shown concentrations; FIG. 10B
Protocol: as §1, §4

SMILES: COc1cc2c(NC3CCN(C(C)C)CC3)nc(C3CCCCC3)nc2cc1OCCCN1CCCC1 [UNC0638]
- number of SKBR3 DTPs formed after pre-treatment (SKBR3 DTPs): dose dependent reduction in the number of SKBR3 DTPs formed
- number of M14 DTPs formed after pre-treatment (M14 DTPs): dose dependent reduction in the number of M14 DTPs formed
- H3K9me2 levels (H3K9me2 levels): reduces H3K9me2 levels in a concentration dependent manner
- viability of the parental PC9 cells (parental PC9 cells): do not affect the viability of the parental PC9 cells
- H3K9 methylation (me1, me2, me3) (H3K9 methylation [1]): reduced methylation of H3K9; also recorded: reduces H3K9 methylation (e.g., me1, me2, and me3) in a dose dependent manner
- viability of the SKBR3 parental cells (SKBR3 parental cells): do not affect the viability of the SKBR3 parental cells
- viability of the Colo205 parental cells (Colo205 parental cells): do not affect the viability of the Colo205 parental cells
- number of EVSA-T DTPs formed after pre-treatment (EVSA-T DTPs): dose dependent reduction in the number of EVSA-T DTPs formed
- H3K9 methylation (me1, me2, me3) (H3K9 methylation [2]): reduces H3K9 methylation (e.g., me1, me2, and me3) in a dose dependent manner
- inhibition of auto-methylation G9aK185me3 (G9aK185me3): inhibits auto-methylation G9aK185me3
- H3K9 methylation (me1, me2, me3) (H3K9 methylation [3]): reduces H3K9 methylation (e.g., me1, me2, and me3) in a dose dependent manner
- number of Colo205 DTPs formed after pre-treatment (Colo205 DTPs): dose dependent reduction in the number of Colo205 DTPs formed
- H3K9 methylation (me1, me2, me3) (H3K9 methylation [4]): reduces H3K9 methylation (e.g., me1, me2, and me3) in a dose dependent manner
- viability of the EVSA-T parental cells (EVSA-T parental cells): do not affect the viability of the EVSA-T parental cells
- inhibition of methylation of H3K9 (methylation of H3K9): capable of inhibiting methylation of H3K9
- H3K9 methylation (me1, me2, me3) (H3K9 methylation [5]): reduces H3K9 methylation (e.g., me1, me2, and me3) in a dose dependent manner
- viability/number of PC9 DTPs generated via treatment with Tarceva (PC9 DTPs; Tarceva, FIGS. 5 and 7): reduces the number of the non-small cell lung cancer cell line, PC9, DTPs; also recorded: reduced the viability of PC9 DTPs
- number of DTPs formed after pre-treatment (PC9 DTPs; varying doses of UNC0638 pre-treatment, FIG. 6B): reducing the number of PC9 DTPs; also recorded: dose dependent reduction in the number of DTPs formed
- viability of the M14 parental cells (M14 parental cells): do not affect the viability of the M14 parental cells
